In one series the target is Albumin (Homo sapiens, UniProt P02768). The series can be described thus: Binding affinity to human serum albumin. The format is ADME. The note with it: isolated protein.
Series [1] can be described thus: Antitumor activity against rat M1 cells implanted in rat assessed as increase in tumor volume coefficient followed by light illumination at 25 mg/kg, ip after 14 days relative to control. Format: functional. The note with it: route intraperitoneal.
Series [2] is described as follows: Antitumor activity against rat M1 cells implanted in rat assessed as increase in tumor volume coefficient followed by light illumination at 25 mg/kg, ip after 21 days relative to control. The format is functional. The note with it: route intraperitoneal.
The nature of series [3]: Induction of necrosis in rat fibroblasts at 1 uM after 20 min post illumination to red light. Format: cell-based. To be noted: fibroblast.

Chain of Albumin (P02768 whole entry): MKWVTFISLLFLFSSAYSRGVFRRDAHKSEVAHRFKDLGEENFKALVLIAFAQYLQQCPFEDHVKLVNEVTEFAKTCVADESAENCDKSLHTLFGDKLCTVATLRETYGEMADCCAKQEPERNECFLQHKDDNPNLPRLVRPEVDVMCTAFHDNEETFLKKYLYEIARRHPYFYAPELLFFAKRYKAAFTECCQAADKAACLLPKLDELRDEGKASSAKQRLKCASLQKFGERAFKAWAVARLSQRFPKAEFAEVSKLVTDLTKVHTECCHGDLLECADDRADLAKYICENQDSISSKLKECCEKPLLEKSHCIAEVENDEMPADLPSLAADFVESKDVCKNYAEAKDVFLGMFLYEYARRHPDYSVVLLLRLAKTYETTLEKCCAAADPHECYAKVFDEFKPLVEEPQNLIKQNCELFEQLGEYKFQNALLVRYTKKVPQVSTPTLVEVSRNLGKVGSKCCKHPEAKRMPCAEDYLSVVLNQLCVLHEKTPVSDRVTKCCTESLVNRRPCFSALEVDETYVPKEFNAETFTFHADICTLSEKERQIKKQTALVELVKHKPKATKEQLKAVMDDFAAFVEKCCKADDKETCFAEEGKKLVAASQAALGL

As for `C=Cc1c(C)c2cc3nc(c(CC(=O)OC)c4[nH]c(cc5nc(cc1[nH]2)C(C)=C5CC)c(C)c4C(=O)NCCN)[C@@H](CCC(=O)OC)C3C` (some centres undefined), the Kb on Albumin came out at 2 ×10⁵ /M. Besides, the figures for the “fold change (FC)” value in series [1] and in series [2] were 6.6 and 14.5, respectively. In addition, the Activity entry in series [3] is on record as “Toxic”.

For the origin of these results see ChEMBL document CHEMBL1143337, “Novel boronated chlorin e6-based photosensitizers: synthesis, binding to albumin and antitumour efficacy” (Bioorg Med Chem, 2009).
